# In PMC7567334 (Environmental Health Perspectives, 2020):
# Entries after “also recorded” stand apart in the source; their conditions may differ. Like-named read-outs stand apart in the source and are kept apart here.
# Columns and labels:
# [1] = ref Schebb et al. 2012, cited from earlier work
# AroB transcription = conditions: 0.25 μM triclocarban added to 1 nM E2; zebrafish embryos; ref Chung et al. 2011; cited from earlier work
# GR [2] = target: T1, GR (Homo sapiens, UniProt P04150); experiment: PolarScreen GR Competitor binding affinity assay; set-up: purchased Invitrogen; conditions: in words; tested up to 10 μM
# T1 sequence (P04150 1-777): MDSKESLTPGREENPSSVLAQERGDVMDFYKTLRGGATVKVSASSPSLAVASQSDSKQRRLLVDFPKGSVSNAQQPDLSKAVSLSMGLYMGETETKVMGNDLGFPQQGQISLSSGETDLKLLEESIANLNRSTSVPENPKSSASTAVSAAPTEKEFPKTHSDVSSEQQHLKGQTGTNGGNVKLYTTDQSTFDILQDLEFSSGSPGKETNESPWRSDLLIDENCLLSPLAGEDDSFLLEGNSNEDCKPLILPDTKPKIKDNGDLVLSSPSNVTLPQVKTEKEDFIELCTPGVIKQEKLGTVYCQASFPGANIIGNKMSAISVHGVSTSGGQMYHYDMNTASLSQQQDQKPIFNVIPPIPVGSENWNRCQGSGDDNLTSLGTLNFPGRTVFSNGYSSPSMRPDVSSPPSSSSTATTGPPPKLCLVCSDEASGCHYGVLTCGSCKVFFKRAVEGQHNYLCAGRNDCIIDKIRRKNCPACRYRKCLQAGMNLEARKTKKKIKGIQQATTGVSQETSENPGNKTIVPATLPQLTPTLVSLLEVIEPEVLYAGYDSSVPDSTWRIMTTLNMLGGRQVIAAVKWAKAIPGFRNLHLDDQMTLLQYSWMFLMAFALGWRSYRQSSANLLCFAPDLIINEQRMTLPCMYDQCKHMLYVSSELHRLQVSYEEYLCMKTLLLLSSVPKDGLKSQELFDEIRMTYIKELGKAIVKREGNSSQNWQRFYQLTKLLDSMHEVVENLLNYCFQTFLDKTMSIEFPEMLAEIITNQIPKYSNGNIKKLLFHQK
# TRα and TRβ [3] = experiment: GH3.TRE-Luc TR reporter assay, agonist setup; assay type: cell-based, rat; conditions: 1 μM; vs 0.1% DMSO
# Androgen receptor = conditions: cited from earlier work
# GR [4] = target: T1, GR; experiment: MDA-kb2 GR reporter assay, antagonist setup (500 nM HC); assay type: cell-based; set-up: constitutively expressed high levels of functional GR and AR; host or cells: MDA-kb2
# human (h)AR = target: T2, human (h)AR (Homo sapiens, UniProt P10275); experiment: AR-EcoScreen hAR transcriptional activation assay, antagonist setup (500 pM DHT); assay type: cell-based; conditions: vs 0.1% DMSO with 500 pM DHT
# T2 sequence (P10275 1-920): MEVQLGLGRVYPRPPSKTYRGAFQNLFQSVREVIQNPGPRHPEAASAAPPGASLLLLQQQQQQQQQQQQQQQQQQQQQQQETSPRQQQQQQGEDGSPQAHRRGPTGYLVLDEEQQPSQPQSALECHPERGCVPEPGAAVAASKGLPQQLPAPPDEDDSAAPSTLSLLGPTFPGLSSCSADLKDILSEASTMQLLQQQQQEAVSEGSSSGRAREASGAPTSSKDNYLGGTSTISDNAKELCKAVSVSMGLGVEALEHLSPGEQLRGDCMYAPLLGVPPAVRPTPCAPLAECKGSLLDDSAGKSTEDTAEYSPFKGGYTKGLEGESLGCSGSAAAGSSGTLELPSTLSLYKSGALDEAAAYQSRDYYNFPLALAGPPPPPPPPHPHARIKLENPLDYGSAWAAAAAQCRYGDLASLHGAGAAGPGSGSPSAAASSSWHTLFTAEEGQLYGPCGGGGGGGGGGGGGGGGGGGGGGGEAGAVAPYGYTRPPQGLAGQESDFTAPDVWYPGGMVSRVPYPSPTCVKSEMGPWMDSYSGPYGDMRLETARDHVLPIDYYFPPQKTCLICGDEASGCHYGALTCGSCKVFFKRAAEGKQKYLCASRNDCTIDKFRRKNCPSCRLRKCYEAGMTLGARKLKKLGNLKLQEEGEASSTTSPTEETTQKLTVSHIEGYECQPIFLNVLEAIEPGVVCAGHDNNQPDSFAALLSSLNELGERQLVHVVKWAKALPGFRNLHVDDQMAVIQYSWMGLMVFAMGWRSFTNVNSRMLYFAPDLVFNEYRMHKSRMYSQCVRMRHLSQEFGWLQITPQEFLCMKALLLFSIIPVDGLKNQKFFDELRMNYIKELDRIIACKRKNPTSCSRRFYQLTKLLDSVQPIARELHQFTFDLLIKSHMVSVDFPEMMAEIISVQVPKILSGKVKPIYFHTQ
# AR-EcoScreen cells = experiment: Cell viability (resazurin) in AR-EcoScreen cells; conditions: agonist assay
# TRα and TRβ [5] = experiment: GH3.TRE-Luc TR reporter assay, antagonist setup (0.25 nM T3); assay type: cell-based, rat
compound,measurement,setting,value
"O=C(Nc1ccc(Cl)cc1)Nc1ccc(Cl)c(Cl)c1 [Triclocarban, 1-(4-Chlorophenyl)-3-(3,4-dichlorophenyl) urea]",time of plasma peak after exposure,[1],≤ 48 h
same,peak plasma concentration,"[1]; six healthy volunteers, triclocarban-containing soaps",23 to 530 nM
same,increase in AroB transcription,AroB transcription,18 fold
same,"binding affinity assay on isolated GR, result",GR [2],did not show binding; also recorded: negative
same,baseline TR-mediated transcriptional activity lower than vehicle control (agonist setup),TRα and TRβ [3],> 50%
same,effect on AR,"Androgen receptor; HEK-2933Y cells, ref Ahn et al. 2008, Chen et al. 2008",Enhancer of testosterone activity in HEK-2933Y cells ([Ahn et al. 2008]; [Chen et al. 2008])
same,effect on AR,"Androgen receptor; MDA-kb2 cells, ref Christen et al. 2010, Kolšek et al. 2014a, Tarnow et al. 2013",Enhancer of 5α-dihydrotestosterone activity in MDA-kb2 cells ([Christen et al. 2010]; [Kolšek et al. 2014a]; [Tarnow et al. 2013])
same,effect on AR,"Androgen receptor; T47D-ARE cells, ref Ahn et al. 2008",Enhancer of testosterone activity in T47D-ARE cells ([Ahn et al. 2008])
same,lower GR RTA than spike-in control,"GR [4]; 5 μM, vs 0.1% DMSO with 500 nM HC",38.9%
same,"GR antagonist activity, call",GR [4]; MDA-kb2,Antagonist
same,concentration with GR antagonist activity,GR [4]; MDA-kb2,5 µM
same,higher AR RTA than spike-in control,human (h)AR; 1 μM,30.7%
same,higher AR RTA than spike-in control,human (h)AR; 2.5 μM,39.4%
same,highest noncytotoxic concentration,AR-EcoScreen cells,2.5 µM
same,lower TR RTA than spike-in control,"TRα and TRβ [5]; 1 μM, vs 0.1% DMSO with 0.25 nM T3",44.3%
same,"TR antagonist activity, call",TRα and TRβ [5]; GH3.TRE-Luc,Antagonist
same,concentration with TR antagonist activity,TRα and TRβ [5]; GH3.TRE-Luc,1 µM
